Measured values published in patent EP2951180B1, “2,6,7,8 SUBSTITUTED PURINES AS HDM2 INHIBITORS” (Merck Sharp & Dohme Corp., priority 2013, dated 2014).

What was measured:
HDM2 [1] = target: T1, HDM2 (Homo sapiens, UniProt Q00987); assay: FRET assay (HDM2 inhibition; method not described in this part); assay type: binding
T1 construct: Thioredoxin (N); made in house; host or cells: E. coli strain BL21(DE3)Rosetta

HDM2 [2] = target: T1, HDM2; assay: HDM2 FRET assay (inhibition of binding of FITC labeled p53-pocket peptide to HDM2); settings: for IC50: read-out: FRET IC50
Method in brief: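 Signal is read as the 520/495 nm emission ratio and converted to percent inhibition; nonlinear sigmoidal regression yields IC50. The assay mixes HDM2 (0.5 nM), FITC-p53 peptide (3 nM) and Tb anti-His antibody (0.25 nM) at 0.1% DMSO.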

T1 sequence (Q00987 17-125): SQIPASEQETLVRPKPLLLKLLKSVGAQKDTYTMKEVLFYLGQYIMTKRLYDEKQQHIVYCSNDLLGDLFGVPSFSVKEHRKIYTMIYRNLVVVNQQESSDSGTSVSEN

In the case of COc1ccc(-c2nc3nc(C(=O)O)nc(N[C@H](C)C4CC4)c3n2Cc2ccc(C(F)(F)F)cc2)cc1 [Example 2.21, 6-{[(1R)-1-cyclopropylethyl]amino}-8-(4-methoxyphenyl)-7-[4-(trifluoromethyl)benzyl]-7H-purine-2-carboxylic acid], the IC50 (HDM2 [1]; Table 2) is reported as 253 nM.
Compound C[C@@H](Nc1nc(C(=O)O)nc2nc(-c3cc(-c4cccs4)ccn3)n(Cc3ccc(C(F)(F)F)cc3)c12)C1CCC1 [Example 1.57, 6-{[(1R)-1-cyclobutylethyl]amino}-8-(4-thiophen-2-ylpyridin-2-yl)-7-[4-(trifluoromethyl)benzyl]-7H-purine-2-carboxylic acid] has an IC50 (HDM2 [1]; Table 1) of 5.95 nM.
C[C@@H](Nc1nc(C(=O)O)nc2nc(-c3ccc4sccc4c3)n(Cc3ccc(Cl)cc3)c12)C1CC1 [Example 2.7, 8-(1-benzothiophen-5-yl)-7-(4-chlorobenzyl)-6-{[(1R)-1-cyclopropylethyl]amino}-7H-purine-2-carboxylic acid] was tested, and the IC50 (HDM2 [1]; Table 2) was 259 nM.
Compound Cc1cnc(-c2nc3nc(C(=O)O)nc(N[C@H](C)C4CCC4)c3n2Cc2ccc(C(F)(F)F)cc2)s1 [Example 3.7, 6-{[(1R)-1-cyclobutylethyl]amino}-8-(5-methyl-1,3-thiazol-2-yl)-7-[4-(trifluoromethyl)benzyl] -7H-purine-2-carboxylic acid] has an IC50 (HDM2 [1]; Table 3) of 42 nM.
Compound COCCCOc1ccc(C)cc1-c1nc2nc(C(=O)O)nc(N[C@H](C)C3CC3)c2n1Cc1ccc(Cl)cc1 [Example 4.5, (R)-7-(4-chlorobenzyl)-6-((1-cyclopropylethyl)amino)-8-(2-(3-methoxypropoxy)-5-methylphenyl)-7H-purine-2-carboxylic acid] has an IC50 (HDM2 [1]; Table 4) of 162 nM.
CCc1ccc(O)c(-c2nc3nc(C(=O)O)nc(N[C@H](C)C4CCC4)c3n2Cc2ccc(C(F)(F)F)cc2)c1 [Example 1.29, 6-{[(1R)-1-cyclobutylethyl]amino}-8-(5-ethyl-2-hydroxyphenyl)-7-[4-(trifluoromethyl)benzyl]-7H-purine-2-carboxylic acid] gave an IC50 (HDM2 [1]; Table 1) of 46.1 nM.
Work on C[C@@H](Nc1nc(C(=O)O)nc2nc(-c3cccc(C#N)c3)n(Cc3ccc(C(F)(F)F)cc3)c12)C1CCC1 [Example 2.45, 8-(3-cyanophenyl)-6-{[(1R)-1-cyclobutylethyl]amino}-7-[4-(trifluoromethyl)benzyl]-7H-purine-2-carboxylic acid] yielded an IC50 (HDM2 [1]; Table 2) of 63 nM.
With Cc1cccc(-c2nc3nc(C(=O)O)nc(N[C@H](C)C4CC4)c3n2Cc2ccc(C(F)(F)F)cc2)c1F [Example 2.65, 6-{[(1R)-1-cyclopropylethyl]amino}-8-(2-fluoro-3-methylphenyl)-7-[4-(trifluoromethyl)benzyl]-7H-purine-2-carboxylic acid] the IC50 (HDM2 [1]; Table 2) was 182 nM.
For COc1ccc(C(C)C)cc1-c1nc2nc(C(=O)O)nc(N[C@H](C)C3CCC3)c2n1Cc1ccc(C(F)(F)F)cc1 [Example 1.41, 6-{[(1R)-1-cyclobutylethyl]amino}-8-[2-methoxy-5-(1-methylethyl)phenyl]-7-[4-(trifluoromethyl)benzyl]-7H-purine-2-carboxylic acid], the IC50 (HDM2 [1]; Table 1) was 27.5 nM.
Compound Cc1ccc(OCCO)c(-c2nc3nc(C(=O)O)nc(N[C@H](C)C4CC4)c3n2Cc2ccc(Cl)cc2)c1 [Example 4.10, (R)-7-(4-chlorobenzyl)-6-((1-cyclopropylethyl)amino)-8-(2-(2-hydroxyethoxy)-5-methylphenyl)-7H-purine-2-carboxylic acid] has an IC50 (HDM2 [1]; Table 4) of 238 nM.
Compound Cc1ccc(C)c(-c2nc3nc(C(=O)O)nc(N[C@H](C)C4CCC4)c3n2Cc2ccc(C(F)(F)F)cc2)n1 [Example 1.21, 6-{[(1R)-1-cyclobutylethyl]amino}-8-(3,6-dimethylpyridin-2-yl)-7-[4-(trifluoromethyl)benzyl]-7H-purine-2-carboxylic acid] has an IC50 (HDM2 [1]; Table 1) of 27 nM.
Work on C[C@@H](Nc1nc(C(=O)O)nc2nc(-c3ccc(Cl)c(Cl)c3)n(Cc3ccc(C(F)(F)F)cc3)c12)C1CC1 [Example 2.31, 6-{[(1R)-1-cyclopropylethyl]amino}-8-(3,4-dichlorophenyl)-7-[4-(trifluoromethyl)benzyl]-7H-purine-2-carboxylic acid] yielded an IC50 (HDM2 [1]; Table 2) of 154 nM.
Work on COc1cc(C#N)cc(-c2nc3nc(C(=O)O)nc(N[C@H](C)C4CCC4)c3n2Cc2ccc(C(F)(F)F)cc2)c1 [Example 2.64, 8-(3-cyano-5-methoxyphenyl)-6-{[(1R)-1-cyclobutylethyl]amino}-7-[4-(trifluoromethyl)benzyl]-7H-purine-2-carboxylic acid] yielded an IC50 (HDM2 [1]; Table 2) of 89.1 nM.
Cc1ccc(OC(F)(F)F)c(-c2nc3nc(C(=O)O)nc(N[C@H](C)C4CCC4)c3n2Cc2ccc(C(F)(F)F)cc2)c1 [Example 1.84, 6-{[(1R)-1-cyclobutylethyl]amino}-8-[5-methyl-2-(trifluoromethoxy)phenyl]-7-[4-(trifluoromethyl)benzyl]-7H-purine-2-carboxylic acid] gave an IC50 (HDM2 [1]; Table 1) of 9.68 nM.
For C[C@@H](Nc1nc(C(=O)O)nc2nc(COCc3ccccc3)n(Cc3ccc(C(F)(F)F)cc3)c12)C1CCC1 [Example 10.2, (R)-8-((benzyloxy)methyl)-6-((1-cyclobutylethyl)amino)-7-(4-(trifluoromethyl)benzyl)-7H-purine-2-carboxylic acid], the IC50 (HDM2 [2]; Table 10) was 21.6 nM.
C[C@H]1CC[C@H](Cn2c(N3CCOC[C@H]3c3ccccc3)nc3nc(-c4noc(=O)[nH]4)nc(-c4cc(Cl)nc(Cl)c4)c32)CC1 [Example 16.107, 3-{6-(2,6-dichloropyridin-4-yl)-7-[(trans-4-methylcyclohexyl)methyl]-8-[(3R)-3-phenylmorpholin-4-yl]-7H-purin-2-yl}-1,2,4-oxadiazol-5(4H)-one] gave an IC50 (HDM2 [2]; 0.5 nM HDM2 (residues 17 to 125), 3nM peptide, two hour incubation at room temperature) of 1.66 nM.
Work on C=C(c1nc2nc(-c3noc(=O)[nH]3)nc(N[C@H](C)C3CCC3)c2n1C[C@H]1CC[C@H](C)CC1)C1CCCCC1 [Example 21.19, 3-(6-{[(1R)-1-cyclobutylethyl]amino}-8-(1-cyclohexylethenyl)-7-[(trans-4-methylcyclohexyl)methyl]-7H-purin-2-yl)-1,2,4-oxadiazol-5(4H)-one] yielded an IC50 (HDM2 [2]; Table 21) of 0.931 nM.
C[C@@H](Nc1nc(-c2noc(=O)[nH]2)nc2nc(C(C)(O)c3ccccc3)n(C[C@H]3CC[C@H](C)CC3)c12)C1CCC1 (single isomer, unassigned) [Example 22.24] showed an IC50 (HDM2 [2]; Table 22) of 33.8 nM.
Cc1cccc(-c2nc3nc(C(=O)O)nc(N(C)C(C4CC4)C4CC4)c3n2Cc2ccc(C(F)(F)F)cc2)c1 [Example 6.84, 6-[(dicyclopropylmethyl)(methyl)amino]-8-(3-methylphenyl)-7-[4-(trifluoromethyl)benzyl]-7H-purine-2-carboxylic acid] gave an inhibition at 1 µM (HDM2 [2]; read-out: inh. at 1000 nM (FRET)) of 46%.
Compound C[C@H](Nc1nc2nc(-c3noc(=O)[nH]3)nc(N[C@H](C)C3CCC3)c2n1C[C@H]1CC[C@H](C)CC1)c1cccc(F)c1 [Example 11.106, 3-(6-{[(1R)-1-cyclobutylethyl]amino}-8-{[(1S)-1-(3-fluorophenyl)ethyl]amino}-7-[(trans-4-methylcyclohexyl)methyl]-7H-purin-2-yl)-1,2,4-oxadiazol-5(2H)-one] has an IC50 (HDM2 [2]; Table 11) of 3.22 nM.
Compound C[C@@H](Nc1nc(C(=O)O)nc2nc(N3CCCCC3Cc3ccc(F)cc3)n(Cc3ccc(C(F)(F)F)cc3)c12)C1CCC1 (stereo partly drawn) [Example 9.69, 6-{[(1R)-1-cyclobutylethyl]amino}-8-[2-(4-fluorobenzyl)piperidin-1-yl]-7-[4-(trifluoromethyl)benzyl]-7H-purine-2-carboxylic acid] has an IC50 (HDM2 [2]; Table 9) of 7.92 nM.
